This test has as its target Beta-lactamase (Escherichia coli K-12, UniProt P00811). Kind of test: Binding affinity towards AmpC beta-lactamase binding site from Escherichia coli.

Sequence of Beta-lactamase (P00811 whole entry): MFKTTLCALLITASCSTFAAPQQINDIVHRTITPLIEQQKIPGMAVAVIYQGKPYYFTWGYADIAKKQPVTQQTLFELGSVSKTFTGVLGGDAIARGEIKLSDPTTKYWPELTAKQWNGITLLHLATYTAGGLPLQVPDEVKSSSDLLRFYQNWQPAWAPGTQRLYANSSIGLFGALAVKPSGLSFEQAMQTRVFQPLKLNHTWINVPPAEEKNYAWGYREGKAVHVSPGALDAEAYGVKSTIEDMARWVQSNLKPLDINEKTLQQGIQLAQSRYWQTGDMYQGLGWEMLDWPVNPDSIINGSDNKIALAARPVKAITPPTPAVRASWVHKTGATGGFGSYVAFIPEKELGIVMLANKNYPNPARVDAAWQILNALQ

`CC(C)(O/N=C(/C(=O)NCB(O)O)c1csc(N)n1)C(=O)O` registered a Ki of 20 nM.

Values taken from ChEMBL document CHEMBL1135514, “Structure-based approach for binding site identification on AmpC beta-lactamase” (J Med Chem, 2002).
